Measurements: US20250129070A1, “BIFUNCTIONAL ANDROGEN RECEPTOR COMPOUNDS” (priority 2023, published 2025)

Test system: AR / CBP ternary complex
Assay: Ternary complex formation assay (sandwich ELISA, AR capture / CBP detection) in VCaP cell lysates
Assay type: cell-based
Settings: 1.5 hours treatment, sandwich ELISA (AR capture, CBP or p300 detection)
Experimental: Preparation of Mouse Anti-AR Antibody Coated 96 Well Plates
Black MaxiSorp plates: coat with 50 μL of mouse 1/50 diluted AR antibody (Monoclonal Antibody (AR 441 from Thermo Fisher); diluted in phosphate buffered saline (PBS). Spin the liquid to the bottom of the wells, if necessary. Incubate overnight at 4° C. Next day, wash 3 times with 200 μL of TBST. Block with 200 μL of blocking buffer (5% BSA in TBST) at room temperature for 2 hours (BSA: A4503 or A2153 from Sigma). Wash plates 3 times with TBST. Plates are ready for lysates Preparation of dimerizer treated lysates
Culture cells in 96 wells at 50K VCaP cells/well for at least 3 days. Plate in 5% Omega charcoal stripped FBS in total volume of 200 uL. Treat with bifunctional for 1.5 hours by adding 1 μL of 200× stock in DMSO. Aspirate media/compound. Add and pipet-to-mix 70 μL of 1× AlphaLisa Lysis Buffer to each well (Perkin Elmer, AlphaLISA SureFire Ultra, diluted in water). Pipet up and down when adding lysis buffer to disrupt cells. Let lysis proceed for 30 min at 4° C.
Incubate for 1 hour at room temperature. Flick out the lysates. Wash 3 times with TBST. Add 75 μL of rabbit CBP or p300 antibody to each well (diluted 1:5000 in blocking buffer (5% BSA in TBST). CBP antibody: (D6C5) Rabbit mAb #7389; p300 antibody: (D8Z4E) Rabbit mAb #86377. Incubate overnight at 4° C. Wash 3 times with 300 uL TBST, each time on shaker for 5-10 min. Prepare goat anti-rabbit antibody conjugated to HRP (1/100K dilution in blocking buffer) Invitrogen Catalog number: 32260. Add 75 μL of HRP-conjugated goat anti-rabbit antibody. Incubate at room temperature for 1 hour. Flick out the HRP-antibody mixture. Wash 7-8 times with TBST, each time on shaker for 10 min. Later washes try to overflow the wells so that no residual HRP remains bound to the sides of the well. Prepare and add 75 uL/well of QuantaRed Enhance Chemifluorescent HRP Substrate solution. Immediately read fluorescence on BMG ClarioStar (ex: 570/em 585), and repeat the read in 5 minutes and 15 minutes.

EC50 [nM]	SMILES
< 1	COc1cc(OC2C(C)(C)C(NC(=O)c3ccc(N4CCC(N(C)C5CCC(n6nc(N7CCCc8cc(-c9cnn(C)c9)c(C(F)F)cc87)c7c6CCN(C(C)=O)C7)CC5)CC4)cc3)C2(C)C)ccc1C#N (centres unmarked) [Compound 280, 4-[4-[[4-[5-acetyl-3-[7-(difluoromethyl)-6-(1-methylpyrazol-4-yl)-3,4-dihydro-2H-quinolin-1-yl]-6,7-dihydro-4H-pyrazolo[4,3-c]pyridin-1-yl]cyclohexyl]-methyl-amino]-1-piperidyl]-N-[3-(4-cyano-3-methoxy-phenoxy)-2,2,4,4-tetramethyl-cyclobutyl]benzamide]
< 1	CC(=O)N1CCc2c(c(-c3cccc4cc(-c5ccc(COCC6CCN(c7ncc(C(=O)NC8C(C)(C)C(Oc9ccc(C#N)c(Cl)c9)C8(C)C)cn7)CC6)nc5)ncc34)nn2C2CCOCC2)C1 (centres unmarked) [Compound 143, 2-[4-[[5-[8-(5-acetyl-1-tetrahydropyran-4-yl-6,7-dihydro-4H-pyrazolo[4,3-c]pyridin-3-yl)-3-isoquinolyl]-2-pyridyl]methoxymethyl]-1-piperidyl]-N-[3-(3-chloro-4-cyano-phenoxy)-2,2,4,4-tetramethyl-cyclobutyl]pyrimidine-5-carboxamide]
< 1	COc1cc(OC2C(C)(C)C(NC(=N)c3ccc(N4CCC(N(C)C5CCC(n6nc(N7CCCc8cc(-c9cnn(C)c9)c(C(F)F)cc87)c7c6CCN(C(C)=O)C7)CC5)CC4)cc3)C2(C)C)ccc1C#N (centres unmarked) [Compound 278, 4-[4-[[4-[5-acetyl-3-[7-(difluoromethyl)-6-(1-methylpyrazol-4-yl)-3,4-dihydro-2H-quinolin-1-yl]-6,7-dihydro-4H-pyrazolo[4,3-c]pyridin-1-yl]cyclohexyl]-methyl-amino]-1-piperidyl]-N-[3-(4-cyano-3-methoxy-phenoxy)-2,2,4,4-tetramethyl-cyclobutyl]benzamidine]
< 1	COc1cc(OC2C(C)(C)C(NC(=O)c3ccc(N4CC(C)C(CN5CCC(n6nc(N7CCCc8cc(C#N)c(C)cc87)c7c6CCN(C(C)=O)C7)CC5)C(C)C4)cc3)C2(C)C)ccc1C#N (centres unmarked) [Compound 457, 4-[4-[[4-[5-acetyl-3-(6-cyano-7-methyl-3,4-dihydro-2H-quinolin-1-yl)-6,7-dihydro-4H-pyrazolo[4,3-c]pyridin-1-yl]-1-piperidyl]methyl]-3,5-dimethyl-1-piperidyl]-N-[3-(4-cyano-3-methoxy-phenoxy)-2,2,4,4-tetramethyl-cyclobutyl]benzamide]
< 1	CC(=O)N1CCc2c(c(N3CCCc4cc(-c5cnn(C)c5)c(C(F)F)cc43)nn2C2CCC(COC3CCN(c4ncc(C(=O)NC5C(C)(C)C(Oc6ccc(C#N)c(Cl)c6)C5(C)C)cn4)CC3)CC2)C1 (centres unmarked) [Compound 173, 2-[4-[[4-[5-acetyl-3-[7-(difluoromethyl)-6-(1-methylpyrazol-4-yl)-3,4-dihydro-2H-quinolin-1-yl]-6,7-dihydro-4H-pyrazolo[4,3-c]pyridin-1-yl]cyclohexyl]methoxy]-1-piperidyl]-N-[3-(3-chloro-4-cyano-phenoxy)-2,2,4,4-tetramethyl-cyclobutyl]pyrimidine-5-carboxamide]
< 1	CC(=O)N1CCc2c(c(N3CCCc4cc(-c5cnn(C)c5)c(C(F)F)cc43)nn2C2CCN(C3CC(C#Cc4ncc(C(=O)NC5C(C)(C)C(Oc6ccc(C#N)c(Cl)c6)C5(C)C)cn4)C3)CC2)C1 (centres unmarked) [Compound 295, 2-[2-[3-[4-[5-acetyl-3-[7-(difluoromethyl)-6-(1-methylpyrazol-4-yl)-3,4-dihydro-2H-quinolin-1-yl]-6,7-dihydro-4H-pyrazolo[4,3-c]pyridin-1-yl]-1-piperidyl]cyclobutyl]ethynyl]-N-[3-(3-chloro-4-cyano-phenoxy)-2,2,4,4-tetramethyl-cyclobutyl]pyrimidine-5-carboxamide]
< 1	COc1cc(OC2C(C)(C)C(NC(=O)c3ccc(N4CC5(CCC(N6CCC(n7nc(N8CCCc9cc(-c%10cn(C)cn%10)c(C(F)F)cc98)c8c7CCN(C(C)=O)C8)CC6)CC5)C4)cc3)C2(C)C)ccc1C#N (centres unmarked) [Compound 426, 4-[7-[4-[5-acetyl-3-[7-(difluoromethyl)-6-(1-methylimidazol-4-yl)-3,4-dihydro-2H-quinolin-1-yl]-6,7-dihydro-4H-pyrazolo[4,3-c]pyridin-1-yl]-1-piperidyl]-2-azaspiro[3.5]nonan-2-yl]-N-[3-(4-cyano-3-methoxy-phenoxy)-2,2,4,4-tetramethyl-cyclobutyl]benzamide]
< 1	COc1cc(OC2C(C)(C)C(NC(=O)c3ccc(N4CC5(CCC(N6CCC(n7nc(N8CCCc9cc(-c%10cncs%10)c(C(F)F)cc98)c8c7CCN(C(C)=O)C8)CC6)CC5)C4)cc3)C2(C)C)ccc1C#N (centres unmarked) [Compound 428, 4-[7-[4-[5-acetyl-3-[7-(difluoromethyl)-6-thiazol-5-yl-3,4-dihydro-2H-quinolin-1-yl]-6,7-dihydro-4H-pyrazolo[4,3-c]pyridin-1-yl]-1-piperidyl]-2-azaspiro[3.5]nonan-2-yl]-N-[3-(4-cyano-3-methoxy-phenoxy)-2,2,4,4-tetramethyl-cyclobutyl]benzamide]
< 1	COc1cc(OC2C(C)(C)C(NC(=O)c3ccc(N4CC(C)C(CN5CCC(n6nc(-c7cccc8cc(-c9cnn(C)c9)ncc78)c7c6CCN(C(C)=O)C7)CC5)C(C)C4)cc3)C2(C)C)ccc1C#N (centres unmarked) [Compound 441, 4-[4-[[4-[5-acetyl-3-[3-(1-methylpyrazol-4-yl)-8-isoquinolyl]-6,7-dihydro-4H-pyrazolo[4,3-c]pyridin-1-yl]-1-piperidyl]methyl]-3,5-dimethyl-1-piperidyl]-N-[3-(4-cyano-3-methoxy-phenoxy)-2,2,4,4-tetramethyl-cyclobutyl]benzamide]
< 1	COc1cc(OC2C(C)(C)C(NC(=O)c3ccc(N4CC5(CCC(N6CCC(n7nc(N8CCCc9cc(C#N)c(C(F)F)cc98)c8c7CCN(C(C)=O)C8)CC6)CC5)C4)cc3)C2(C)C)ccc1C#N (centres unmarked) [Compound 452, 4-[7-[4-[5-acetyl-3-[6-cyano-7-(difluoromethyl)-3,4-dihydro-2H-quinolin-1-yl]-6,7-dihydro-4H-pyrazolo[4,3-c]pyridin-1-yl]-1-piperidyl]-2-azaspiro[3.5]nonan-2-yl]-N-[3-(4-cyano-3-methoxy-phenoxy)-2,2,4,4-tetramethyl-cyclobutyl]benzamide]
10 to 100	CC(=O)N1CCc2c(c(N3CCCc4cc(-c5cnn(C)c5)c(C(F)F)cc43)nn2C2CN(CCN3CCN(c4ncc(C(=O)NC5C(C)(C)C(Oc6ccc(C#N)c(Cl)c6)C5(C)C)cn4)CC3)C2)C1 (centres unmarked) [Compound 161, 2-[4-[2-[3-[5-acetyl-3-[7-(difluoromethyl)-6-(1-methylpyrazol-4-yl)-3,4-dihydro-2H-quinolin-1-yl]-6,7-dihydro-4H-pyrazolo[4,3-c]pyridin-1-yl]azetidin-1-yl]ethyl]piperazin-1-yl]-N-[3-(3-chloro-4-cyano-phenoxy)-2,2,4,4-tetramethyl-cyclobutyl]pyrimidine-5-carboxamide]
< 1	COc1cc(OC2C(C)(C)C(NC(=O)c3ccc(N4CC5(CCC(N6CCC(n7nc(N8CCCc9cc(-c%10cnn(C)c%10)c(C(F)F)cc98)c8c7CCN(C(C)=O)C8)CC6)C5)C4)cc3)C2(C)C)ccc1C#N (centres unmarked) [Compound 345, 4-[6-[4-[5-acetyl-3-[7-(difluoromethyl)-6-(1-methylpyrazol-4-yl)-3,4-dihydro-2H-quinolin-1-yl]-6,7-dihydro-4H-pyrazolo[4,3-c]pyridin-1-yl]-1-piperidyl]-2-azaspiro[3.4]octan-2-yl]-N-[3-(4-cyano-3-methoxy-phenoxy)-2,2,4,4-tetramethyl-cyclobutyl]benzamide]

SMILES	EC50 [nM]
CC(=O)N1CCc2c(c(N3CCCc4cc(-c5cnn(C)c5)c(C(F)F)cc43)nn2C2CCN(C(=O)C3CCN(c4ccc(C(=O)NC5C(C)(C)C(Oc6ccc(C#N)c(Cl)c6)C5(C)C)cn4)CC3)CC2)C1 (centres unmarked) [Compound 115, 6-[4-[4-[5-acetyl-3-[7-(difluoromethyl)-6-(1-methylpyrazol-4-yl)-3,4-dihydro-2H-quinolin-1-yl]-6,7-dihydro-4H-pyrazolo[4,3-c]pyridin-1-yl]piperidine-1-carbonyl]-1-piperidyl]-N-[3-(3-chloro-4-cyano-phenoxy)-2,2,4,4-tetramethyl-cyclobutyl]pyridine-3-carboxamide]	< 1
CC(=O)N1CCc2c(c(N3CCCc4cc(-c5cnn(C)c5)c(C(F)F)cc43)nn2C2CCN(C(=O)N3CCN(c4ncc(C(=O)NC5C(C)(C)C(Oc6ccc(C#N)c(Cl)c6)C5(C)C)cn4)CC3)CC2)C1 (centres unmarked) [Compound 112, 2-[4-[4-[5-acetyl-3-[7-(difluoromethyl)-6-(1-methylpyrazol-4-yl)-3,4-dihydro-2H-quinolin-1-yl]-6,7-dihydro-4H-pyrazolo[4,3-c]pyridin-1-yl]piperidine-1-carbonyl]piperazin-1-yl]-N-[3-(3-chloro-4-cyano-phenoxy)-2,2,4,4-tetramethyl-cyclobutyl]pyrimidine-5-carboxamide]	< 1
